Measurements taken from US8859543B2, “Imidazo[1,2-a]pyrazine derivatives and their use for the prevention or treatment of neurological, psychiatric and metabolic disorders and diseases” (Janssen Pharmaceutica NV, priority 2010, dated 2014).
Like-named read-outs stand apart in the source and are kept apart here.

Key:
PDE3A = PDE3A (Homo sapiens, UniProt Q14432); assay: In vitro PDE selectivity assay, PDE3A; assay type: biochemical; details: Table 4a in vitro selectivity; read-out: IC50 PDE type 3A
Chain of PDE3A (Q14432 whole entry): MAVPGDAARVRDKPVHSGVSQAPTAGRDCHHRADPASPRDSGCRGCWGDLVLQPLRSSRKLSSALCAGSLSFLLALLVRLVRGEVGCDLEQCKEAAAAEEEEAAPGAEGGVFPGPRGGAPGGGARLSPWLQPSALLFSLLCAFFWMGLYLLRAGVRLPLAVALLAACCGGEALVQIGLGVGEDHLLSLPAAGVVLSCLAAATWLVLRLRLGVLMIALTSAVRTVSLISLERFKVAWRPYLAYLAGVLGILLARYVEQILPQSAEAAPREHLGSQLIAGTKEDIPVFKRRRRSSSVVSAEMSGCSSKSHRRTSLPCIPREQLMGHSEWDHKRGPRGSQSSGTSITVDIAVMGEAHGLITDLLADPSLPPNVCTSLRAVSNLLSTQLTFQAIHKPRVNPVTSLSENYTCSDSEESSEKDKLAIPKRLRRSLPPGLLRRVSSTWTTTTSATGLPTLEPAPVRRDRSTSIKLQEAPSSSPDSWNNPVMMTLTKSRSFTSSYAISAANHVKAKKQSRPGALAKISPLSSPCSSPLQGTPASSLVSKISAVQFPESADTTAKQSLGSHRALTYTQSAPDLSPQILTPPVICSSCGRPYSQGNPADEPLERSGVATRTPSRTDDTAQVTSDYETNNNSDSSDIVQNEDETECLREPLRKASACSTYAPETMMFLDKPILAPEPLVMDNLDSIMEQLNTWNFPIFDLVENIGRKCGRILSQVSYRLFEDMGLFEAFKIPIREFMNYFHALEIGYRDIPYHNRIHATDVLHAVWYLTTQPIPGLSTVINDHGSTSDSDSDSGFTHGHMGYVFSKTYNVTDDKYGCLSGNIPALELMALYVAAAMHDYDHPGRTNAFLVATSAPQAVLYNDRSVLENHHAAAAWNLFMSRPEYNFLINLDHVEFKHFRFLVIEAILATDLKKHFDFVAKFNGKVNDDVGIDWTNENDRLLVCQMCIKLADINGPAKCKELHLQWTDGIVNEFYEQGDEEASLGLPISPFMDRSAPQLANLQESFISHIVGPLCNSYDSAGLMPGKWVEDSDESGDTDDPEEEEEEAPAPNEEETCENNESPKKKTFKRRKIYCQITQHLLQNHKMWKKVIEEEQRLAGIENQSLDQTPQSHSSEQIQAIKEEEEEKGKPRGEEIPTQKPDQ
Procedure: (§1) Rat recombinant PDE10A (rPDE10A2) was expressed in Sf9 cells using a recombinant rPDE10A baculovirus construct. Cells were harvested after 48 h of infection and the rPDE10A protein was purified by metal chelate chromatography on Ni-sepharose 6FF. […] The reaction was incubated for 60 min. at RT. […] After sedimentation of the beads during 30 min. the radioactivity was measured in a Perkin Elmer Topcount scintillation counter and results were expressed as cpm. For blank values the enzyme was omitted from the reaction and replaced by incubation buffer. […] The same assay principle is applied for the measurement of the affinity of the compound for other members of the PDE family with appropriate modifications in incubation buffer, substrate concentration, incubation time and stop solution.

[1] = target: T1, Rat recombinant PDE10A (rPDE10A2) (Rattus norvegicus, UniProt Q9QYJ6); assay: In vitro assay PDE10A (SPA, 3H-cAMP); assay type: biochemical
T1 construct: made in house; host or cells: Sf9 insect cells, baculovirus
T1 sequence (Q9QYJ6 1-794): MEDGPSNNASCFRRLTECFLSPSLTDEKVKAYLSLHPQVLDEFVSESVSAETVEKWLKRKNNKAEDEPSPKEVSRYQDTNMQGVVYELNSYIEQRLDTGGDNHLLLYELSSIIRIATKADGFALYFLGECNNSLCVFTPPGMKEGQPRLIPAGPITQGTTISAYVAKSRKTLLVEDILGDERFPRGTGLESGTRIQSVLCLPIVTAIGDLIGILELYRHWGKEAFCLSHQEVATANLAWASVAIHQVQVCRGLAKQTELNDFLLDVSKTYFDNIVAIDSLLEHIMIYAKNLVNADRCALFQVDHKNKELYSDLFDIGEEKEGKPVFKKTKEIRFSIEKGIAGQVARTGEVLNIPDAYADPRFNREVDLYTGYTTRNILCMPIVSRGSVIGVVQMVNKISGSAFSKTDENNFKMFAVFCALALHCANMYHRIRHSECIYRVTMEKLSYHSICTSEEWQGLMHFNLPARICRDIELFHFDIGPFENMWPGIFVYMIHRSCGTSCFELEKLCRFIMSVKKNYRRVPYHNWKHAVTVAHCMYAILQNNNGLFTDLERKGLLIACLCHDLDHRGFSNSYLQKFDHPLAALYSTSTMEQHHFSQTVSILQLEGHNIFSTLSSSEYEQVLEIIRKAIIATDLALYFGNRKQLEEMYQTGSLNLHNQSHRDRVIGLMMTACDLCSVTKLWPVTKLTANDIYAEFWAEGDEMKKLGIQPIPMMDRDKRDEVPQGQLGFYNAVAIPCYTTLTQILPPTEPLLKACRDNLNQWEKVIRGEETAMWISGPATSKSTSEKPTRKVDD
Procedure, shortened: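 Purified Sf9-expressed rat PDE10A2 incubated 60 min at RT with 60 nM cAMP plus 0.008 μCi 3H-cAMP in 50 mM Tris pH 7.8, 8.3 mM MgCl2, 1.7 mM EGTA, 1% DMSO final. Product quantified by scintillation proximity counting against no-enzyme blanks and DMSO controls.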

PDE2A = PDE2A (Homo sapiens, UniProt O00408); assay: In vitro PDE selectivity assay, PDE2A; assay type: biochemical; details: Table 4a in vitro selectivity; read-out: IC50 PDE type 2A
Chain of PDE2A (O00408 whole entry, species assumed): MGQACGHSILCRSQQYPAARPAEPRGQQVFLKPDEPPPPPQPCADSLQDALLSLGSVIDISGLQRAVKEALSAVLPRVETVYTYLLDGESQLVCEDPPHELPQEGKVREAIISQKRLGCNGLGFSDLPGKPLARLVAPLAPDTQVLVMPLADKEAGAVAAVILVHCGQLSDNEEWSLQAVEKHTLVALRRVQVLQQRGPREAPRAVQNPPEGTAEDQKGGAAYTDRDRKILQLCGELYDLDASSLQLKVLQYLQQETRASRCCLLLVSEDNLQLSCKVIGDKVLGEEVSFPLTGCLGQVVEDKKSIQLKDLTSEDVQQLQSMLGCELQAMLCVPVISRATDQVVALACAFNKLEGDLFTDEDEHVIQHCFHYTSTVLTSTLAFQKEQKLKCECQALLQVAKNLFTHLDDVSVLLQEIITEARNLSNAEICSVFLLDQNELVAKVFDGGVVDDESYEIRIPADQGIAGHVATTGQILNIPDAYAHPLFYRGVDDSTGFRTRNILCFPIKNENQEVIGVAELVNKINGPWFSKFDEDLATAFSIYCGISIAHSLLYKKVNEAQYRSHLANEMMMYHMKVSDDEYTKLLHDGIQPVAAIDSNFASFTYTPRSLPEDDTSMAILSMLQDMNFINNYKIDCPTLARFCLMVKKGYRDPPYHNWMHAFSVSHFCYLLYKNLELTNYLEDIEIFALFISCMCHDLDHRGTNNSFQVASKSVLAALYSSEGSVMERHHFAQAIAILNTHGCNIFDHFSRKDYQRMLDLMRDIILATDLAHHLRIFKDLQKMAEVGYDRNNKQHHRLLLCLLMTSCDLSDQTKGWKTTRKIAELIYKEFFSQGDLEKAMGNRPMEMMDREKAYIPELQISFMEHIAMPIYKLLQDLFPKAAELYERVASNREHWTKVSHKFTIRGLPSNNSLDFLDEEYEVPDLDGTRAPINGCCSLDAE
Procedure: as §1

PDE10 = target: T2, PDE10 (Rattus norvegicus, UniProt Q9QYJ6); assay: PDE10 occupancy ([3H]-MP-10, striatum); assay type: in vivo; details: rat, sc; occupancy, administered s.c.; read-out: Occ. ED50
T2 construct: from tissue; host or cells: rat brain sections, striatum (ex vivo autoradiography after in vivo dosing)
T2 sequence (Q9QYJ6 1-794): T1 sequence (Q9QYJ6 1-794)
Procedure: Dose-response or single dose experiments were performed to measure PDE10 occupancy 1 hour after subcutaneous (s.c.) or oral (p.o.) administration. Male Wistar rats (200 g) were treated by s.c. or p.o. administration of various PDE10 inhibitors. The PDE10 radioligand [^3H]-MP-10 (10 μCi/animal) was injected intravenously (i.v.) 30 minutes before sacrifice. Brains were immediately removed from the skull and rapidly frozen. Twenty μm-thick brain sections were cut using a cryostat-microtome, thaw-mounted on microscope slides and loaded in a β-imager to quantify PDE10 occupancy in the striatum.

PDE9A = PDE9A (Homo sapiens, UniProt O76083); assay: In vitro PDE selectivity assay, PDE9A; assay type: biochemical; details: Table 4a in vitro selectivity; read-out: IC50 PDE type 9A
Chain of PDE9A (O76083 whole entry): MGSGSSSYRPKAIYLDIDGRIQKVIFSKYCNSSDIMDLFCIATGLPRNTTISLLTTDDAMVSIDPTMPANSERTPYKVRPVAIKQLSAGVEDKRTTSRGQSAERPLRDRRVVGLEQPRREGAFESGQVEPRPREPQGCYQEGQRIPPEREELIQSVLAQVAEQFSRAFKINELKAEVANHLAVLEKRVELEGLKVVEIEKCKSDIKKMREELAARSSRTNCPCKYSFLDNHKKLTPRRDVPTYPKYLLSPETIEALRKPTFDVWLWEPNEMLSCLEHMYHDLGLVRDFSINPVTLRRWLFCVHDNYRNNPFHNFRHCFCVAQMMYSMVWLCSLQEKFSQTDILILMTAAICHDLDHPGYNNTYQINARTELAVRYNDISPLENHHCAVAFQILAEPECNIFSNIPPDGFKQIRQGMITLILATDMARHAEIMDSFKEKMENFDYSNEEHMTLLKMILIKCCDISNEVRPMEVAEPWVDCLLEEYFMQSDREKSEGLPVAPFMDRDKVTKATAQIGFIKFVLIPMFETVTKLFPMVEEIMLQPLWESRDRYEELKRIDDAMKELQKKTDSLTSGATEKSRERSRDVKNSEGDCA
Procedure: as §1

PDE5A = PDE5A (Homo sapiens, UniProt O76074); assay: In vitro PDE selectivity assay, PDE5A; assay type: biochemical; details: Table 4a in vitro selectivity; read-out: IC50 PDE type 5A
Procedure: as §1

PDE1B = PDE1B (Homo sapiens, UniProt Q01064); assay: In vitro PDE selectivity assay, PDE1B; assay type: biochemical; details: Table 4a in vitro selectivity; read-out: IC50 PDE type 1B
Chain of PDE1B (Q01064 whole entry): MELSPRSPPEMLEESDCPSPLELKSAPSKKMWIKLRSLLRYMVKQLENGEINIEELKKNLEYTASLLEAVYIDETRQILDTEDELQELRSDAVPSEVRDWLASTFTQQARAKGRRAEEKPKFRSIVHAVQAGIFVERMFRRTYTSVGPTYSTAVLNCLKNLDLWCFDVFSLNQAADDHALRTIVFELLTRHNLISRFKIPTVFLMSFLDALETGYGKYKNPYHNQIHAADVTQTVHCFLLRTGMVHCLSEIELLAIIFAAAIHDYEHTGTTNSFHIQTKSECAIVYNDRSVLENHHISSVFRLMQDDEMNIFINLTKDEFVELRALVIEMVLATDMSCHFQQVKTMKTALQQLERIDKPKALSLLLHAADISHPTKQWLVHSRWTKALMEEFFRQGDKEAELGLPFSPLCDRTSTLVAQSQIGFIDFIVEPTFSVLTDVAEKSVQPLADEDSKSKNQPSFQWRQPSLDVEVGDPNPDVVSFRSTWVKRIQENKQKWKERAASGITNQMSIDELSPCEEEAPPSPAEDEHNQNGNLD
Procedure: as §1

PDE8A1 = PDE8A1 (Homo sapiens, UniProt O60658); assay: In vitro PDE selectivity assay, PDE8A; assay type: biochemical; details: Table 4a in vitro selectivity; read-out: IC50 PDE type 8A
Chain of PDE8A1 (O60658 whole entry, species assumed): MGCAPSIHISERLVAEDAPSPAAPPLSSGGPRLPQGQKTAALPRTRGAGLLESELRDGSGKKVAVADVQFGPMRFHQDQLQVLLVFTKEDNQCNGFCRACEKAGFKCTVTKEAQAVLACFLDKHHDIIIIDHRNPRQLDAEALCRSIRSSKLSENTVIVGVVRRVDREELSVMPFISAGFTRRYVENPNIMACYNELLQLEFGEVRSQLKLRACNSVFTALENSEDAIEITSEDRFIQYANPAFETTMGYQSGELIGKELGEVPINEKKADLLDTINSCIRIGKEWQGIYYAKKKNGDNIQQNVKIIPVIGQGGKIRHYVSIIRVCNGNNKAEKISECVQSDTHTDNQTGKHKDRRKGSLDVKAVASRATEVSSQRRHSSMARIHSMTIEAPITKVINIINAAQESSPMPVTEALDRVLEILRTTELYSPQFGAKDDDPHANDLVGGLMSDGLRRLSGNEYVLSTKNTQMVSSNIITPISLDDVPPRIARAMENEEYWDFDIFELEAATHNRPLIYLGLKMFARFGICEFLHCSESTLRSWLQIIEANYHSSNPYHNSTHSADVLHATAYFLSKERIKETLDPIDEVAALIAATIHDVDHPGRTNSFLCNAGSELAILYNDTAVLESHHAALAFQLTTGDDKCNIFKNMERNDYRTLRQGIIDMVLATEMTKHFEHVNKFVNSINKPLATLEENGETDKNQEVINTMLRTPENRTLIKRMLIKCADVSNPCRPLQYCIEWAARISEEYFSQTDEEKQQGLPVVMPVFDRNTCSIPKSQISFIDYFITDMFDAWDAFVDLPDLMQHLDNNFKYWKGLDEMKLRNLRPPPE
Procedure: as §1

Compound: Cc1nc2c(N3CCOCC3)nccn2c1-c1ccc(C2CCOCC2)nc1 [compound 25, 2-Methyl-8-morpholin-4-yl-3-[6-(tetrahydro-pyran-4-yl)-pyridin-3-yl]-imidazo[1,2-a]pyrazine]
- IC50 (PDE3A): 112 µM
- IC50 ([1]; Table 4a in vitro selectivity, read-out: IC50 PDE type 10A): 0.16 µM
- IC50 ([1]; pIC50 corresponds to the -log IC50 expressed in mol/L, read-out: PDE10A2 pIC50 (converted)): 0.191 µM
- IC50 (PDE2A): 42.7 µM
- ED50 (PDE10): 4.6 mg/kg
- IC50 (PDE9A): > 100 µM
- IC50 (PDE5A): 33.9 µM
- IC50 (PDE1B): > 100 µM
- IC50 (PDE8A1): > 100 µM
